This is an account of results in US20210115000A1, “NILE RED DERIVATIVES FOR IMPROVED RATIOMETRIC IMAGING FOR NERVE SPECIFIC CONTRAST” (Oregon Health & Sciences University, priority 2018, published 2021).

Data set [1] concerns CD-1 mouse sciatic nerve and surrounding muscle and adipose tissues. As to the kind of experiment: Ex vivo tissue section staining, imaging and fluorescence quantification. Conditions: for tissue fluorescence intensity, region of interest analysis / tissue staining specificity on mouse tissue sections: 100 μM, 40 min; for tissue fluorescence intensity, region of interest analysis: n=4 tissue sections; for tissue staining specificity on mouse tissue sections: sections with nerve, muscle, adipose; for adipose to muscle ratio: ex vivo tissue sections, vs control autofluorescence. The protocol:
Cryosections of CD-1 mouse sciatic nerve and surrounding muscle and adipose tissues from unrelated experiments were cut from optimal cutting temperature (OCT, Fisher Scientific, Hampton, N.H.) embedded frozen tissues. Cryosectioned tissues were captured on superfrost plus slides (Fisher Scientific) at 10 μm thickness. The tissue sections were washed with 1×PBS for 2 minutes to remove OCT, and then fixed with 2% PFA for 15 mins. The tissue sections were then washed with 0.1% Tween 20 in 1×PBS (3×5 mins), followed by incubation with 100 μM of Nile Red and each Nile Red derivative formulated using 10% DMSO, 5% Kolliphore (Sigma Aldrich, St. Louis, Mo.), 63.75% FBS, and 21.25% 1× PBS as previously described.^26 Tissue sections were incubated with the formulated fluorophores for 40 minutes at room temperature, followed by washing with blank formulation not containing fluorophore (2×5 mins). Each tissue section was then washed with 1×PBS (2×5 mins), fixed for 15 minutes using 2% PFA, followed by a final wash with 1×PBS for 5 mins before mounting in glycerol (Fisher Scientific). Images were collected at an exposure time of 650 ms for all Nile Red and Nile Red derivative stained sections. Four tissue sections were stained for Nile Red and each Nile Red derivative, facilitating adipose to muscle and adipose to nerve contrast ratio quantification where tissue intensities were quantified using region of interest analysis with custom written MatLab code (The MathWorks, Natick, Mass.). For each tissue type, a representative area was selected, where a threshold based mask was set to determine tissue from background. The mean tissue intensity was calculated in adipose, nerve and muscle tissues as the intensity per second and used to calculate the adipose to nerve and adipose to muscle contrast ratios. All ex vivo and cellular fluorescence and white light images were collected using a Zeiss AxioObserver inverted fluorescence microscope (Carl Zeiss, Oberkochen, Germany). All cell images were collected at 40× magnification and all tissue section images were collected at 10× magnification. Fluorescence excitation was completed using a Photofluor II broad band light source (89 North, Burlington, Vt.) filtered with a 545±12.5 nm bandpass excitation filter. Fluorescence images were collected using a 605±35 nm bandpass emission filter and a AxioCam 506 monochromo camera (Zeiss). All Filters were Purchased from Chroma Technologies (Bellows Falls, Vt.).

Data set [2] is described as follows: Spectroscopic analysis: absorbance, emission and quantum yield of Nile Red derivatives. Type of data set: physicochemical. The method, then:
Tandem liquid chromatography mass spectroscopy (LCMS) analysis (Agilent 1260 LC system with a 6224 time of flight (TOF) MS, Agilent, Santa Clara, Calif.) was performed using a 2.7 micron C18 column (4.6×50 mm, Agilent). High performance liquid chromatography (HPLC) purification (Agilent 1260 system with a preparative pump) was performed using a 5 micron C18 column (21.2×150 mm, Agilent). For both HPLC and LCMS, the mobile phase consisted of HPLC grade acetonitrile and water, treated with 0.1% formic acid. Spectroscopic analysis was performed on a Spectramax M5 spectrometer (Molecular Devices, Sunnyvale, Calif.) using a quartz cuvette with a 1 cm pathlength. Quantum yield was calculated according to equation (1).
Where Ø is the quantum yield, F is the integrated fluorescence intensity, f is the absorbance at the excitation wavelength and n is the refractive index of the solvent. S refers to the quantum yield standard (Rhodamine B)^25 and X refers to the unknown sample.

Data set [3] deals with sciatic nerve or brachial plexus nerve sites (adipose, nerve, muscle tissue). As to the kind of experiment: In vivo imaging following direct/topical administration on rodent nerve sites. Details: species or system male CD-1 mice. Conditions: for nerve accumulation: summary of in vitro, ex vivo and in vivo characterization. From the text: In vivo images were acquired using a previously published, custom-built small animal fluorescence imaging system, described briefly here.^27 Fluorescent images were obtained using a Qimaging EXi Blue monochrome camera (Surrey, British Columbia, CA) with a removable Bayer mask for collection of co-registered color and fluorescence images. A Photofluor II broad band light source (89 North) was expanded onto the surgical field through a liquid light guide and used unfiltered for white light illumination. Nile Red and NR5 were excitated using a 545 t 12.5 nm bandpass filter, while fluorescence emission images were collected with a 605±35 nm bandpass filter. Oxazine 4 (Exciton, West Chester, Ohio) was used for nerve and adipose co-staining and ratiometic imaging studies. Oxazine 4 was excited using a 620±30 nm bandpass filter, while fluorescence emission images were collected through a 700±37.5 nm bandpass filter. Approval for the use of animals in the study was obtained from the Institutional Animal Care and Use Committee (IACUC) at Oregon Health and Science University (OHSU). In vivo staining studies were carried out on male CD-1 mice using an optimized direct/topical administration protocol.^2 Staining was performed concurrently on no more than two nerve sites (sciatic nerve or brachial plexus) per mouse. Nile Red and all Nile Red derivatives were formulated in a previously published co-solvent formulation (10% DMSO, 5% Kolliphor, 63.75% serum and 21.25% PBS^14) at a final concentration of 100 μM. Each formulated fluorophore was incubated for 5 minutes on the nerve site (n=4 nerve sites/fluorophore), followed by 9 short flushes with PBS. The nerve site was then incubated with blank co-solvent not containing fluorophore for 5 minutes, followed again by 9 short flushes with PBS.

Setting [4] is: 100 μM, immediately following direct administration.
The mark [5] stands for this setting: 30 minutes post direct administration.
[6] abbreviates: immediately following direct administration.

SMILES strings stand for the structures. Entries after “also recorded” stand apart in the source; their conditions may differ.

Turning to `CCN(CC)c1ccc2nc3c4ccc(-c5ccc(C#N)cc5)cc4c(=O)cc-3oc2c1` [NR5, 4-(9-(diethylamino)-5-oxo-5H-benzo[a]phenoxazin-3-yl)benzonitrile], in data set [1], the “tissue fluorescence intensity, region of interest analysis” value was “strong nerve and adipose fluorescence staining; also recorded: substantially higher adipose, nerve and muscle tissue fluorescence”; the “tissue staining specificity on mouse tissue sections” value is recorded as “adipose specificity; also recorded: brightest overall tissue staining compared to the other Nile Red derivatives”; the “adipose to muscle ratio” value is given as “increased contrast over control autofluorescence adipose to muscle ratio; also recorded: highest contrast ratios”. Further, in data set [2] (in DMSO), the “Max Abs” value was 560 nm, the “Max Em” value is listed as 640 nm and the “Stokes Shift” value came out at 80 nm. The “QY (quantum yield)” value in data set [2] (in DMSO, standard Rhodamine B) worked out at 0.54. Also, the “tissue specific fluorescence intensity” value in data set [3] (setting [4]) was “highest fluorescence signal compared to the other Nile Red derivatives; also recorded: highest fluorescence intensity in the adipose, nerve and muscle tissues of the synthesized Nile Red derivatives”. Besides, the “adipose to nerve contrast” value in data set [3] (setting [5]) is recorded as “higher adipose-to-nerve contrast compared to Nile Red; also recorded: increased”. In data set [3] (setting [6]), the “adipose to muscle ratio” value is listed as “lower than Nile Red, adipose to muscle contrast was similar” and the “adipose to nerve ratio” value is reported as “increased contrast over control autofluorescence with similar adipose to nerve contrast”. Further, in data set [3] (out to 120 minutes after direct administration), the “tissue-specific contrast, adipose signal” value is reported as “adipose signal was maintained throughout the 120 minute imaging time”. Further, the nerve accumulation entry in data set [3] is “minimal nerve accumulation”.

As for `CCN(CC)c1ccc2nc3c4ccccc4c(=O)cc-3oc2c1` [Nile Red], in data set [1], the “tissue fluorescence intensity, region of interest analysis” value is “strong nerve and adipose fluorescence staining; also recorded: highest overall tissue fluorescence”; the “tissue staining specificity on mouse tissue sections” value is listed as “adipose specificity”; the “adipose to muscle ratio” value is “increased contrast over control autofluorescence adipose to muscle ratio; also recorded: highest contrast ratios”. For the same compound, in data set [2] (in DMSO), the “Max Abs” value is listed as 550 nm and the “Max Em” value stood at 630 nm. In data set [2] (in toluene), this compound came in with an absorbance maximum of 520 nm and an emission maximum of 570 nm. The “tissue specific fluorescence intensity” value in data set [3] (setting [4]) is “highest fluorescence signal compared to the other Nile Red derivatives; also recorded: strong fluorescence intensity”. For the same compound, in data set [3] (30 minutes after direct administration), the “tissue specific fluorescence intensity” value is “decrease in adipose, nerve and muscle fluorescence”. Further, in data set [3] (setting [5]), the “adipose to muscle contrast” value is given as “greatest” and the “adipose to nerve contrast” value was “decreased”. For the same compound, in data set [3] (setting [6]), the “adipose to muscle ratio” value was “greatest adipose to muscle contrast” and the “adipose to nerve ratio” value is listed as “increased contrast over control autofluorescence with similar adipose to nerve contrast”. Moreover, in data set [3], the nerve accumulation entry was “some nerve accumulation”.
